Molecules are shown by their SMILES.

One data set relates to algae. It is filed as cell-based. Here is the method:
(§1) For the cationic surfactant type 1 from Table 2, the biodegradability and toxicity was determined in accordance with OECD 301 B against algae.

Data set [1] in a line: Biodegradability in accordance with OECD 301 B. Here is the method: as §1

On to `CCCCCCCCCCCCCCCCCCCCCC[N+](C)(C)C.[Cl-]` [behentrimonium chloride], for which, in the data set on algae, the Toxicity towards algae was below 1 mg/L. The Biodegradability entry in data set [1] is “not degraded”.

(Values after patent US20110014148A1, “Cationic Surfactants Having Improved Properties” (COGNIS IP MANAGEMENT GMBH, priority 2008, published 2011).)
